From patent publication US8802353B2, “Compound for resist and radiation-sensitive composition specification” (Mitsubishi Gas Chemical Company, Inc., priority 2004, dated 2014)

Legend:
Type in all cases: physicochemical
[1] = Film-forming property (spin-coated film on silicon wafer); set-up: key: rated C when the film was clouded or its surface was roughened; rated B when the film was partly clouded or roughened; rated A when the film had a good surface flatness without causing clouding; conditions: 3% by weight solution spin-coated, 110° C. 3 min
From the text: A 3% by weight solution of the compound B or a mixture (compound B and polyphenol A) in PGME/PE (1/2 by weight) or acetone when not dissolved in PGME/PE was spin-coated on a silicon wafer which had been surface-treated with a silane coupling agent, to form a resist film with a thickness of about 0.05 μm.

[2] = Solubility in safety solvent; conditions: 23° C.; PGMEA, PGME, ethyl lactate, butyl acetate, methyl 3-methoxypropionate, ethyl propionate
Protocol: The solubility of the compound B was tested at 23° C. using propylene glycol monomethyl ether acetate, propylene glycol monomethyl ether, ethyl lactate, butyl acetate, methyl 3-methoxypropionate and ethyl propionate. The sample was rated A when dissolved in any one of the above solvents in a concentration of 5 wt % or more, rated B when dissolved in a concentration of 0.1 to 5 wt %, and rated C when dissolved only in a concentration of less than 0.1 wt %.

[3] = Adhesion to silicon substrate; set-up: key: rated A when the film was not peeled from the silicon wafer; rated C when peeled off; conditions: silicon wafer surface-treated with silane coupling agent
Protocol: The resist film formed in (2-2) was tested for its adhesion to the silicon wafer which was surface-treated with a silane coupling agent. The sample was rated A when the film was not peeled from the silicon wafer, and rated C when peeled off.

[4] = Glass transition temperature, crystallization temperature and quantity of crystallization heat (DSC); conditions: for Glass transition temperature Rating / Glass transition temperature / Crystallization temperature: DSC; for Glass transition temperature: 20° C./min, nitrogen gas flow; for Crystallization temperature: exothermic peak; for Glass transition temperature-Crystallization temperature: rating of the difference
Protocol: A sample (about 10 mg) placed in a non-sealed aluminum container was heated to a temperature higher than the melting point at a temperature rising rate of 20° C./min in a nitrogen gas flow (50 ml/min). After being rapidly cooled, the sample was again heated to a temperature higher than the melting point at a temperature rising rate of 20° C./min in a nitrogen gas flow (30 ml/min). After being rapidly cooled, the sample was again heated to 400° C. at a temperature rising rate of 20° C./min in a nitrogen gas flow (30 ml/min), to conduct a differential scanning calorimetric analysis using DSC/TA-50WS manufactured by Shimadzu Corporation. The middle point of the region at which the base line turned discontinuous (the point at which the specific heat reduced to half) was taken as the glass transition temperature (Tg) and the temperature of the exothermic peak after the discontinuous region was taken as the crystallization temperature. The quantity of crystallization heat was determined by the area of the region which was surrounded by the exothermic peak and the base line. The sample was rated A when meeting Tg≧130° C., and rated C when meeting Tg≦130° C. Also, the sample was rated A when meeting (glass transition temperature)−(crystallization temperature)≧70° C., and rated C when meeting (glass transition temperature)-(crystallization temperature)<70° C.

Structure (SMILES)	film-forming property [1]	Solubility to safety solvent [2]	Adhesion to silicon substrate [3]	Glass transition temperature Rating [4]	Glass transition temperature [4] [°C]	Crystallization temperature [4] [°C]	Glass transition temperature-Crystallization temperature [4]
CC(C)(C)OC(=O)Oc1ccc(C(c2ccc(OC(=O)OC(C)(C)C)cc2)c2ccc(OC(=O)OC(C)(C)C)cc2)cc1 [Compound 203, reference compound]	A	C (rated C when dissolved only in a concentration of less than 0.1 wt %)	A				
Cc1cc(C(c2ccc3ccc(C(c4cc(C)c(O)cc4C)c4cc(C)c(O)cc4C)cc3c2)c2cc(C)c(O)cc2C)c(C)cc1O [Compound 104]				A (rated A when meeting Tg≧130° C.)	145	287	A (rated A when meeting (glass transition temperature)−(crystallization temperature)≧70° C.)
Cc1cc(C(c2ccc3cc(C(c4cc(C)c(O)cc4C)c4cc(C)c(OC(C)OC5CCCCC5)cc4C)ccc3c2)c2cc(C)c(O)cc2C)c(C)cc1O (stereo not shown) [Compound 118]	A	A (rated A when dissolved in any one of the above solvents in a concentration of 5 wt % or more)	A				
Cc1cc(C(c2ccc3cc(C(c4cc(C)c(O)c(C)c4C)c4cc(C)c(OC(C)OC5CCCCC5)c(C)c4C)ccc3c2)c2cc(C)c(O)c(C)c2C)c(C)c(C)c1O (stereo not shown) [Compound 112]	A	A (rated A when dissolved in any one of the above solvents in a concentration of 5 wt % or more)	A				
Cc1cc(C(c2ccc3cc(C(c4cc(C)c(O)cc4C)c4cc(C)c(O)cc4C)ccc3c2)c2cc(C)c(O)cc2C)c(C)cc1O [Compound 101, tetrakis(2,5-xylenol)-2,6-naphthalenedialdehyde]				A (rated A when meeting Tg≧130° C.)	144		A (rated A when meeting (glass transition temperature)−(crystallization temperature)≧70° C.)
Cc1cc(C(C)(c2ccc(O)c(C)c2)c2ccc3ccccc3c2)ccc1O [Compound 206, 1-(2-naphthyl)-1,1-bis(3-methyl-4-hydroxyphenyl)ethane, reference compound]				C (rated C when meeting Tg≦130° C.)	72		A (rated A when meeting (glass transition temperature)−(crystallization temperature)≧70° C.)
Cc1cc(C(c2ccc3cc(C(c4cc(C)c(O)cc4C)c4cc(C)c(OC(C)OC5CCCCC5)cc4C)ccc3c2)c2cc(C)c(O)cc2C)c(C)cc1O (stereo not shown) [Compound 110]	A	A (rated A when dissolved in any one of the above solvents in a concentration of 5 wt % or more)	A				
Oc1ccc(C2(c3ccc(O)cc3)c3ccccc3-c3ccccc32)cc1 [Compound 209, bisphenol fluorene, reference compound]				C (rated C when meeting Tg≦130° C.)	101	157.7	C (rated C when meeting (glass transition temperature)-(crystallization temperature)<70° C.)
Cc1cc(C(c2ccc(-c3ccc(-c4ccc(C(c5cc(C)c(O)cc5C)c5cc(C)c(OC(C)OC6CCCCC6)cc5C)cc4)cc3)cc2)c2cc(C)c(O)cc2C)c(C)cc1O (stereo not shown) [Compound 116]	A	A (rated A when dissolved in any one of the above solvents in a concentration of 5 wt % or more)	A				
Cc1cc(O)c(C(C)C)cc1C(c1ccc2cc(C(c3cc(C(C)C)c(O)cc3C)c3cc(C(C)C)c(OC(C)OC4CCCCC4)cc3C)ccc2c1)c1cc(C(C)C)c(O)cc1C (stereo not shown) [Compound 113]	A	A (rated A when dissolved in any one of the above solvents in a concentration of 5 wt % or more)	A				
CC(C)(C)OC(=O)Oc1ccc(C2(c3ccc(OC(=O)OC(C)(C)C)cc3)CCCCC2)cc1 [Compound 202, reference compound]		C (rated C when dissolved only in a concentration of less than 0.1 wt %)					
Cc1cc(C(C)(c2ccc(OC(C)OC3CCCCC3)c(C)c2)c2ccc3ccccc3c2)ccc1O (stereo not shown) [Compound 208, reference compound]	A	A (rated A when dissolved in any one of the above solvents in a concentration of 5 wt % or more)	A				
Cc1cc(C(c2ccc(-c3cccc(-c4ccc(C(c5cc(C)c(O)cc5C)c5cc(C)c(O)cc5C)cc4)c3)cc2)c2cc(C)c(O)cc2C)c(C)cc1O [Compound 106]				A (rated A when meeting Tg≧130° C.)	137		A (rated A when meeting (glass transition temperature)−(crystallization temperature)≧70° C.)
CCOC(C)Oc1cc(C)c(C(c2ccc3cc(C(c4cc(C)c(O)cc4C)c4cc(C)c(O)cc4C)ccc3c2)c2cc(C)c(O)cc2C)cc1C (stereo not shown) [Compound 109]	A	A (rated A when dissolved in any one of the above solvents in a concentration of 5 wt % or more)	A				
CCOC(C)Oc1ccc(C(C)(c2ccc(O)c(C)c2)c2ccc3ccccc3c2)cc1C (stereo not shown) [Compound 207, reference compound]	A	A (rated A when dissolved in any one of the above solvents in a concentration of 5 wt % or more)	A				
Cc1cc(C(c2ccc3ccc(C(c4cc(C)c(O)c(C)c4C)c4cc(C)c(OC(C)OC5CCCCC5)c(C)c4C)cc3c2)c2cc(C)c(O)c(C)c2C)c(C)c(C)c1O (stereo not shown) [Compound 114]	A	A (rated A when dissolved in any one of the above solvents in a concentration of 5 wt % or more)	A				
CC(C)(C)OC(=O)Oc1ccc(-c2cc(-c3ccc(OC(=O)OC(C)(C)C)cc3)cc(-c3ccc(OC(=O)OC(C)(C)C)cc3)c2)cc1 [Compound 204, reference compound]	B	A (rated A when dissolved in any one of the above solvents in a concentration of 5 wt % or more)	A				
Cc1cc(C(c2ccc(-c3ccc(-c4ccc(C(c5cc(C)c(O)cc5C)c5cc(C)c(O)cc5C)cc4)cc3)cc2)c2cc(C)c(O)cc2C)c(C)cc1O [Compound 107]				A (rated A when meeting Tg≧130° C.)	147		A (rated A when meeting (glass transition temperature)−(crystallization temperature)≧70° C.)
CC(C)(C)OC(=O)Oc1ccc(C(C)(C)c2ccc(OC(=O)OC(C)(C)C)cc2)cc1 [Compound 201, reference compound]		C (rated C when dissolved only in a concentration of less than 0.1 wt %)					
Cc1cc(C(c2ccc3cc(C(c4cc(C)c(O)c(C)c4C)c4cc(C)c(O)c(C)c4C)ccc3c2)c2cc(C)c(O)c(C)c2C)c(C)c(C)c1O [Compound 102]				A (rated A when meeting Tg≧130° C.)	136		A (rated A when meeting (glass transition temperature)−(crystallization temperature)≧70° C.)
